The values that follow come from PMC8002323 (Molecules, 2021).

Data set [1] deals with T1, AChE (type VI-S, from electric eel) (Electrophorus electricus, UniProt O42275).
T1 construct: purchased
Description: biochemical. The settings on record: for IC50: AChE from Electric eel, mean of two independent experiments ± SD, read-out: AChE Inhib. IC50 ± SD; for AChE inhibition (in words): AChE from electric eel. Type of data set: biochemical. How it is done:
The acetylcholinesterase inhibitory activity was assessed by an adaptation of the Ellman’s method. The assay solution contained 4-(2-hydroxyethyl)-1-piperazineethanesulfonic acid (HEPES) buffer (50 mM, pH 8.0), 5,5′-dithiobis-(2-nitrobenzoic acid) (DTNB, 3 mM), the stock solution of each compound in methanol (1 mg/mL), AChE (type VI-S, from electric eel) and the required quantity of methanol to reach the desired volume of sample mixture in a 1 mL cuvette. Samples were incubated for 15 min and then 75 μL of acetylthiocholine iodide (AThChI) solution (16 mM) was added. The reaction was monitored for 5 min at 405 nm. Assays were run with a blank containing all the reagents but AChE. Reaction rates were calculated as well as the enzyme activity. A positive control reaction was performed using methanol as a sample solution. The fraction of enzyme inhibition due to the existence of rising concentration of the test compound was calculated using Equation (1), where vi = starting reaction rate in the presence of inhibitor; vo = starting reaction rate of the control reaction. (1) %I =100−100 × […]
The inhibition curves were achieved by plotting the percentage of enzymatic inhibition against inhibitor concentration and a calibration curve was got from which the linear regression parameters were obtained.

For data set [2], the target named is T2, Aβ1–42 (Homo sapiens, UniProt P05067). Description: Inhibition of self-induced Aβ1–42 aggregation (thioflavin-T fluorescence method). To be noted: read-out: Aβ1–42 Aggreg. Inhib.
T2 sequence (P05067 672-713 limits assumed): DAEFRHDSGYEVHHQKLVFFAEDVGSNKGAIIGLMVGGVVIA
Description: Inhibitory capacity of the compounds for the Aβ1–42 aggregation was assessed based on the fluorescence properties of thioflavine T (ThT), measured with a Varian Cary Eclipse spectrofluorometer.
A previously prepared solution of Aβ1–42 was used.
To the resulting alkaline Aβ1–42 solution was added phosphate buffer (pH 8.0). The compounds tested were diluted in MeOH (1 mg/mL) and then further diluted in phosphate buffer. Two different types of experiments were prepared in a final volume of 60 μL. The solution for the control ligand assay consists in 30 µL of phosphate buffer and 30 µL of Aβ1–42 solution, to evaluate the aggregation without any inhibition, while the solution for the ligand assay consists of 20 µL of phosphate buffer, 30 µL of Aβ1–42 solution and 10 µL of the ligand solution, to evaluate the effect of the ligand in the aggregation. For each experiment a blank sample, without Aβ1–42, is used to monitor the effect of the compounds in the fluorescence. These samples were left incubating in a water bath (CERTOMAT WR), for 24 h, at 37 °C with gentle shaking [14].
A glycine-NaOH buffer (pH 8.5) containing ThT (5 μM) was added to each sample. Samples were placed in a microplate and the fluorescence signal was monitored at 446 nm (λexc) and 490 nm (λem) [40].
(2) %I=100−Fi/F0× 100 where Fi and F0 are the fluorescence intensities in the presence and absence of the compound, respectively, minus the fluorescence intensities of the respective blanks. Statistical analysis was performed in Microsoft Office Excel®.
The subject of data set [3] is SH-SY5Y human neuroblastoma cells. Briefly: Dose-response screening of cell viability (MTT reduction assay). The format is cell-based. The settings on record: SH-SY5Y cells treated 25 h, 2.5–50 μM. How it is done:
(§1) SH-SY5Y human neuroblastoma cells (ATCC-CRL-2266) (American Type Culture Collection, Manassas, Virgínia, USA) were plated in DMEM/F12 (Dulbecco’s Modified Eagle Medium/Ham’s F-12 Nutrient Mixture; Thermo Fisher Scientific) with 10% heat inactivated fetal bovine serum, 50 U/mL penicillin and 50 U/mL streptomycin under a humidified atmosphere with 95% relative humidity at 37 °C at a 0.16 × 10^6 cells/mL density. Each of the tested substances (6, 7, 8, 9) were dissolved in DMSO to prepare a stock solution at a 25 mM concentration and stored at −20 °C until further use. SH-SY5Y cells were treated for 25 h with varying concentrations of compounds, in order to select the highest non-toxic concentration. The selected concentrations for each compound were: 40 µM final concentration for 6; 15 µM final concentration for 7; 30 µM final concentration for 8 and 2.5 µM final concentration for 9. […] For the neuroprotection assays, the incubation with Aβ1–42 or L-ascorbic acid/ferrous sulphate treatment was preceded with 1 h incubation of the compounds when needed. Pre-incubation was followed by 24 h treatment of Aβ1–42 or Fe/Asc, accounting a total of 25 h. Aβ1–42 was prepared as 276.9 µM stock in sterile water and administrated in the medium at a 2.5 µM final concentration. Ferrous sulphate was freshly prepared as 0.36 M stock in water and added to the medium at 2.5 mM final concentration. L-ascorbic acid was freshly prepared as 80 mM stock in water and added to the medium at 5 mM final concentration. Aβ1–42 was purchased from Bachem (Torrance, CA, USA) and ferrous sulphate and L-ascorbic acid from Sigma Chemical Co. (St. Louis, MO, USA).
Cellular viability was determined by employing the MTT (3-(4,5-dimethylthiazol-2-yl)-2,5-diphenyltetrazolium bromide) reduction assay, according to the Mosmann method. This colorimetric test consists in the ability of the succinate dehydrogenase enzyme from viable cells to metabolize the MTT into a formazan. In the end of treatments, cells medium was aspirated and cells were washed with 1 × PBS (phosphate-buffered saline) to remove dead cells. MTT solution (200 µL, 0.5 mg/mL) was added to each well and incubated for 2 h protected from light. Formazan precipitates were then dissolved in DMSO and absorbance measured at 570 nm. The ability to reduce MTT was expressed as a percentage of untreated, control cells.
For orientation: Tetrazolium assays rely on reduction of a dye to a coloured formazan, in cell work by metabolically active cells.

Data set [4] concerns SH-SY5Y cells. Briefly: Neuroprotective effect on Aβ42-induced toxicity (MTT reduction assay). The format is cell-based, human. To be noted: Aβ42 2.5 μM 24 h, 1 h pre-incubation; 7 (15 µM), 8 (30 µM), 9 (2.5 µM). How it is done: as §1
Cellular viability was determined by employing the MTT (3-(4,5-dimethylthiazol-2-yl)-2,5-diphenyltetrazolium bromide) reduction assay, according to the Mosmann method. […] Formazan precipitates were then dissolved in DMSO and absorbance measured at 570 nm. The ability to reduce MTT was expressed as a percentage of untreated, control cells.

Data set [5] addresses T2, Aβ1–42. To be noted: self-induced aggregation, literature value for DNP; ref [3],[27]; cited from earlier work.

Values joined by “and” are separate entries in the source; they are usually repeats but may differ in a detail not shown here. Identical values can stand only once.

T1 sequence (O42275 24-633): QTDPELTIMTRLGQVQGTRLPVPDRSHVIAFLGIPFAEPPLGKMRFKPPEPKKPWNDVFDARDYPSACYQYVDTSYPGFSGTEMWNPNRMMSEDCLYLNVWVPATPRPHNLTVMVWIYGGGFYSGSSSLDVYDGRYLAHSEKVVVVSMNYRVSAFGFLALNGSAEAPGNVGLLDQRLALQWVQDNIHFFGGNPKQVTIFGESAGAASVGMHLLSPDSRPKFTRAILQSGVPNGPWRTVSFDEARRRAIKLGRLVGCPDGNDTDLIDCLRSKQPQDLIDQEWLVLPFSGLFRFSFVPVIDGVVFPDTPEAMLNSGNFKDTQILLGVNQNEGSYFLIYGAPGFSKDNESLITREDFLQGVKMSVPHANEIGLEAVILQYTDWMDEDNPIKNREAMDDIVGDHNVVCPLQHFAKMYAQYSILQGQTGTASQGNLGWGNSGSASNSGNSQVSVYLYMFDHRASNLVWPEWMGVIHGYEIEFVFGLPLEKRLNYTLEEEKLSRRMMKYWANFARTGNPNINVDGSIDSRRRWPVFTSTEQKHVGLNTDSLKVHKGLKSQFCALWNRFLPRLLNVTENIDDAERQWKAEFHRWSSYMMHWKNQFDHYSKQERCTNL

In the case of `Cc1ccc(S(=O)(=O)NCCN2CCN(Cc3ccccc3)CC2)cc1` [Compound 5, N-(2-(4-benzylpiperazin-1-yl)ethyl)-4-methylbenzenesulfonamide], in data set [1], the IC50 (as a rule, the point on the concentration scale where inhibition reaches its midpoint) was at least 100 µM and the “AChE inhibition (in words)” value was “do not show significant inhibition”. Further, in data set [2], the inhibition at 40 µM came out at 41.8%.

In the case of `COc1ccc(S(=O)(=O)NCCN2CCN(Cc3ccccc3)CC2)cc1` [Compound 6, N-(2-(4-benzylpiperazin-1-yl)ethyl)-4-methoxybenzenesulfonamide], the “highest non-toxic concentration (selected concentration)” value in data set [3] was determined as 40 µM. In data set [1], the IC50 stood at 89 ± 9 µM and the “AChE inhibition (in words)” value is on record as “do not show significant inhibition”. Moreover, the inhibition at 40 µM in data set [2] is 37.2%.

As to `O=S(=O)(NCCN1CCN(Cc2ccccc2)CC1)c1ccc(-c2ccccc2)cc1` [Compound 7, N-(2-(4-benzylpiperazin-1yl)ethyl)-[1,1’-biphenyl]-4-sulfonamide], the “highest non-toxic concentration (selected concentration)” value in data set [3] came to 15 µM. The IC50 in data set [1] turned out to be 38.7 ± 0.2 µM. The “reversal of neurotoxicity induced by Aβ peptides (in words)” value (“reversal of neurotoxicity induced” below) in data set [4] is reported as “able to relapse the neurotoxicity induced by Aβ peptides”. Further, in data set [2], the inhibition at 40 µM amounted to 34.6%.

In the case of `COc1ccc(S(=O)(=O)NCC2CCN(Cc3ccccc3)CC2)cc1` [Compound 8, N-((1-benzylpiperidin-4-yl)methyl)-4-methoxybenzenesulfonamide], the “highest non-toxic concentration (selected concentration)” value in data set [3] is reported as 30 µM. Moreover, the IC50 in data set [1] was 1.6 to 6.2 µM and 6.2 µM. The “reversal of neurotoxicity induced” value in data set [4] is “more modest results in reverting neurotoxicity”. In addition, in data set [2], the inhibition at 40 µM was 64.2%.

As to `O=S(=O)(NCC1CCN(Cc2ccccc2)CC1)c1ccc(-c2ccccc2)cc1` [Compound 9, N-((1-benzylpiperidin-4-yl)methyl)-[1,1’-biphenyl]-4-sulfonamide], the “highest non-toxic concentration (selected concentration)” value in data set [3] is reported as 2.5 µM. The IC50 in data set [1] was 1.6 to 6.2 µM and 1.6 µM. The “reversal of neurotoxicity induced” value in data set [4] is given as “more modest results in reverting neurotoxicity”. For the same molecule, the inhibition at 40 µM in data set [2] worked out at 60.7%.

For `COc1cc2c(cc1OC)C(=O)C(CC1CCN(Cc3ccccc3)CC1)C2` (stereo not drawn) [DNP, donepezil], the “Aβ1–42 Aggreg. Inhib.” value in data set [5] is given as below 5%.

Turning to `Nc1c2c(nc3ccccc13)CCCC2` [Tacrine, tacrine, reference compound], the inhibition at 40 µM in data set [2] was determined as 54.5%.
